Reference: patent publication US20240207427A1, “SELECTIVE DRUG RELEASE FROM INTERNALIZED CONJUGATES OF BIOLOGICALLY ACTIVE COMPOUNDS” (priority 2021, published 2024)
Like-named read-outs stand apart in the source and are kept apart here.

Key:
Format in all cases: cell-based
[1] = tested on: renal carcinoma cells (786-O); experiment: In vitro potency (CellTiter-Glo, 96 h), 786-O; settings: Homo sapiens, 786-0, 96 h, CPT free drugs, renal carcinoma cells 786-O, 96 h, CellTiter-Glo
Experimental: (§1) In vitro potency was assessed on multiple cancer cell lines. All cell lines were authenticated by STR profiling at IDEXX Bioresearch and cultured for no more than 2 months after resuscitation. Cells cultured in log-phase growth were seeded for 24 hours in 96-well plates containing […] RPMI 1640 supplemented with 20% FBS. Serial dilutions of antibody-drug conjugates in cell culture media were prepared at 4× working concentrations, and 50 μL of each dilution was added to the 96-well plates. Following addition of test articles, cells were incubated with test articles for 4 days at 37 0° C. After 96 hours, growth inhibition was assessed by CellTiterGlo® (Promega, Madison, WI) and luminescence was measured on a plate reader.
(§2) In Table 7, IC50 values for ADCs are given in ng/mL. Cell viability was determined by CellTiter-Glo staining after 96 h exposure to ADC. ND=Not Determined. Ag2 is an antibody targeting a ubiquitous and readily internalizable antigen. The cancer cell lines tested are renal carcinoma cells (786-0), melanoma cells (A2058), pancreatic cancer cells (BxPC3), non-small-cell lung cancer cells (Calu1), anaplastic large cell lymphoma cells (DEL, DELBVR, Karpas299), Hodgkin's lymphoma cells (L540cy), (Ls174T), breast cancer cells (MDA-MB-231), acute myeloid leukemia cells (MOLM-13), and B-lymphocyte cancer cells (SU-DHL4).
as §1, with “FBS.” for “FBS. Serial dilutions of antibody-drug conjugates in cell culture media were prepared at 4× working concentrations, and 50 μL of each dilution was added to the 96-well plates.”
(§3) Cell viability was determined by CellTiter-Glo staining after 96 h exposure to the compound. ND=Not Determined. The cancer cell lines tested are renal carcinoma cells (786-0), melanoma cells (A2058), pancreatic cancer cells (BxPC3), non-small-cell lung cancer cells (Calu1), anaplastic large cell lymphoma cells (DEL, DELBVR, Karpas299), Hodgkin's lymphoma cells (L540cy), (Ls 174T), breast cancer cells (MDA-MB-231), acute myeloid leukemia cells (MOLM-13), B-lymphocyte cancer cells (SU-DHL4), multiple myeloma cells (MM.1R), (U266), and melanoma cells (SK-MEL-5).
as §1, with “37°” for “37 0°”
(§4) In the following Tables IC50 values for ADCs and CPT free drugs are given in ng/mL and nmol/L concentrations. Cell viability was determined by CellTiter-Glo staining after 96 h exposure to ADC or CPT free drug.
(§5) Cell viability was determined by CellTiter-Glo staining after 96 h exposure to ADC. ND=Not Determined.

[2] = tested on: pancreatic cancer cells (BxPC3); experiment: In vitro potency (CellTiter-Glo, 96 h), BxPC3; settings: Homo sapiens, BXPC-3, 96 h, CPT free drugs, pancreatic cancer cells BxPC3, 96 h, CellTiter-Glo
Experimental: as §1, §2
as §1, with “FBS.” for “FBS. Serial dilutions of antibody-drug conjugates in cell culture media were prepared at 4× working concentrations, and 50 μL of each dilution was added to the 96-well plates.”
as §3
as §1, with “37°” for “37 0°”
as §4, §5

[3] = tested on: breast cancer cells (MDA-MB-231); experiment: In vitro potency (CellTiter-Glo, 96 h), MDA-MB-231; settings: Homo sapiens, MDA-MB-231, 96 h, CPT free drugs, breast cancer cells MDA-MB-231, 96 h, CellTiter-Glo
Experimental: as §1, §2
as §1, with “FBS.” for “FBS. Serial dilutions of antibody-drug conjugates in cell culture media were prepared at 4× working concentrations, and 50 μL of each dilution was added to the 96-well plates.”
as §3
as §1, with “37°” for “37 0°”
as §4, §5

[4] = tested on: anaplastic large cell lymphoma cells (DEL); experiment: In vitro potency (CellTiter-Glo, 96 h), DEL
Experimental: as §1, §2
as §1, with “FBS.” for “FBS. Serial dilutions of antibody-drug conjugates in cell culture media were prepared at 4× working concentrations, and 50 μL of each dilution was added to the 96-well plates.”
as §3
as §1, with “37°” for “37 0°”
as §4, §5

[5] = tested on: B-lymphocyte cancer cells (SU-DHL4); experiment: In vitro potency (CellTiter-Glo, 96 h), SU-DHL-4; settings: Homo sapiens, SU-DHL-4, 96 h, CPT free drugs, B-lymphocyte cancer cells SU-DHL4, 96 h, CellTiter-Glo
Experimental: as §1, §2
as §1, with “FBS.” for “FBS. Serial dilutions of antibody-drug conjugates in cell culture media were prepared at 4× working concentrations, and 50 μL of each dilution was added to the 96-well plates.”
as §3
as §1, with “37°” for “37 0°”
as §4, §5

[6] = tested on: anaplastic large cell lymphoma cells (DELBVR); experiment: In vitro potency (CellTiter-Glo, 96 h), DELBVR
Experimental: as §1, §2
as §1, with “FBS.” for “FBS. Serial dilutions of antibody-drug conjugates in cell culture media were prepared at 4× working concentrations, and 50 μL of each dilution was added to the 96-well plates.”
as §3
as §1, with “37°” for “37 0°”
as §4, §5

[7] = tested on: anaplastic large cell lymphoma cells (Karpas299); experiment: In vitro potency (CellTiter-Glo, 96 h), Karpas299; settings: Homo sapiens, KARPAS-299, 96 h, CPT free drugs, anaplastic large cell lymphoma cells Karpas299, 96 h, CellTiter-Glo
Experimental: as §1, §2
as §1, with “FBS.” for “FBS. Serial dilutions of antibody-drug conjugates in cell culture media were prepared at 4× working concentrations, and 50 μL of each dilution was added to the 96-well plates.”
as §3
as §1, with “37°” for “37 0°”
as §4, §5

[8] = tested on: Hodgkin's lymphoma cells (L540cy); experiment: In vitro potency (CellTiter-Glo, 96 h), L540cy
Experimental: as §1, §2
as §1, with “FBS.” for “FBS. Serial dilutions of antibody-drug conjugates in cell culture media were prepared at 4× working concentrations, and 50 μL of each dilution was added to the 96-well plates.”
as §3
as §1, with “37°” for “37 0°”
as §4, §5

Ls174T cells = experiment: In vitro potency (CellTiter-Glo, 96 h), Ls174T; settings: Homo sapiens, LS174T, 96 h, CPT free drugs, Ls174T cells, 96 h, CellTiter-Glo
Experimental: as §1, §2
as §1, with “FBS.” for “FBS. Serial dilutions of antibody-drug conjugates in cell culture media were prepared at 4× working concentrations, and 50 μL of each dilution was added to the 96-well plates.”
as §3
as §1, with “37°” for “37 0°”
as §4, §5

[9] = tested on: acute myeloid leukemia cells (MOLM-13); experiment: In vitro potency (CellTiter-Glo, 96 h), MOLM-13; settings: Homo sapiens, MOLM-13, 96 h, CPT free drugs, acute myeloid leukemia cells MOLM-13, 96 h, CellTiter-Glo
Experimental: as §1, §2
as §1, with “FBS.” for “FBS. Serial dilutions of antibody-drug conjugates in cell culture media were prepared at 4× working concentrations, and 50 μL of each dilution was added to the 96-well plates.”
as §3
as §1, with “37°” for “37 0°”
as §4, §5

[10] = read-out: MDAMB231 IC50, Table 28
[11] = read-out: DEL IC50, Table 28, CPT free drugs, anaplastic large cell lymphoma cells DEL, CellTiter-Glo
[12] = read-out: SU-DHL-4 IC50, Table 28
[13] = read-out: DELBVR IC50, Table 28, CPT free drugs, anaplastic large cell lymphoma cells DELBVR, CellTiter-Glo
[14] = read-out: Karpas299 IC50, Table 28
[15] = read-out: L540cy IC50, Table 28, CPT free drugs, Hodgkin's lymphoma cells L540cy, CellTiter-Glo
[16] = read-out: Ls174T IC50, Table 28
[17] = read-out: MOLM-13 IC50, Table 28

SMILES | IC50 ([1]; read-out: 786-O IC50, Table 29) [nM] | IC50 ([2]; read-out: BxPC3 IC50, Table 29) [nM] | IC50 ([3]; read-out: MDAMB231 IC50, Table 29) [nM] | IC50 ([4]; read-out: DEL IC50, Table 29, CPT free drugs, anaplastic large cell lymphoma cells DEL, CellTiter-Glo) [nM] | IC50 ([5]; read-out: SU-DHL-4 IC50, Table 29) [nM] | IC50 ([6]; read-out: DELBVR IC50, Table 29, CPT free drugs, anaplastic large cell lymphoma cells DELBVR, CellTiter-Glo) [nM] | IC50 ([7]; read-out: Karpas299 IC50, Table 29) [nM] | IC50 ([8]; read-out: L540cy IC50, Table 29, CPT free drugs, Hodgkin's lymphoma cells L540cy, CellTiter-Glo) [nM] | IC50 (Ls174T cells; read-out: Ls174T IC50, Table 29) [nM] | IC50 ([9]; read-out: MOLM-13 IC50, Table 29) [nM] | IC50 ([1]; read-out: 786-O IC50, Table 28) [nM] | IC50 ([2]; read-out: BxPC3 IC50, Table 28) [nM] | IC50 [3, 10] [nM] | IC50 [4, 11] [nM] | IC50 [5, 12] [nM] | IC50 [6, 13] [nM] | IC50 [7, 14] [nM] | IC50 [8, 15] [nM] | IC50 (Ls174T cells; [16]) [nM] | IC50 [9, 17] [nM]
CC[C@@]1(O)C(=O)OCc2c1cc1n(c2=O)Cc2c-1nc1cc3c(cc1c2CN1CCC(N)CC1)OCO3 [Compound 8f] | 267 | 166 | 207 | 14 | 32 | 30 | 110 | 84 | 236 | 32 |  |  |  |  |  |  |  |  |  | 
CC[C@@]1(O)C(=O)OCc2c1cc1n(c2=O)Cc2c-1nc1cc3c(cc1c2CNC(C)=O)CCO3 [Compound 12] |  |  |  |  |  |  |  |  |  |  | 13 | 12 | 27 | 1 | 1 | 1 | 24 | 5 | 19 | 5
CC[C@@]1(O)C(=O)OCc2c1cc1n(c2=O)Cc2c-1nc1cc(F)c(C)c(Cl)c1c2CNC(C)=O [Compound 12a] |  |  |  |  |  |  |  |  |  |  | 1 | 2 | 2 | 0.2 | 0.4 | 0.2 | 1 | 0.4 | 7 | 1
CC[C@@]1(O)C(=O)OCc2c1cc1n(c2=O)Cc2c-1nc1cc3c(cc1c2CNC(=O)CN)CCO3 [Compound 13] |  |  |  |  |  |  |  |  |  |  | 139 | 94 | 177 | 8 | 18 | 21 | 126 | 45 | 195 | 88
CC[C@@]1(O)C(=O)OCc2c1cc1n(c2=O)Cc2c-1nc1cc(F)c(C)c(Cl)c1c2CNC(=O)CN [Compound 13a] |  |  |  |  |  |  |  |  |  |  | 6 | 5 | 5 | 0.3 | 1 | 1 | 1 | 1 | 44 | 2
